Where two headings read alike, the source gives them in different places.
Key:
[1] = test system: HIV-1 Env pseudovirus BL274.W6M.ENV.A3; assay: Single-cycle assay, Paired Infant and Maternal Env clones
MT-2 cells = assay: Cytotoxicity; type: cell-based, human; conditions: read-out: MT-2 CC50, MTS, mean ± SD, n=3
[2] = test system: HIV-1 Env pseudovirus Q259ENV.W6; assay: Single-cycle assay TZM-bl, Env pseudovirus panel
[3] = test system: HIV-1 Env pseudovirus QH0692, clone 42; assay: Single-cycle assay TZM-bl, Env pseudovirus panel
[4] = test system: panel of HIV-1 Env pseudoviruses; type: cell-based
[5] = test system: HIV-1 Env pseudovirus HIV-25711-2, clone 4; assay: Single-cycle assay TZM-bl, Env pseudovirus panel
[6] = test system: HIV-1 Env pseudovirus CAP210.2.00.E8; assay: Single-cycle assay TZM-bl, Env pseudovirus panel
[7] = test system: HIV-1 Env pseudovirus BG505-T332N; assay: Single-cycle assay TZM-bl, Env pseudovirus panel
[8] = test system: HIV-1 Env pseudovirus QA790.204I.ENV.C8; assay: Single-cycle assay TZM-bl, Env pseudovirus panel
HIV-1LAI = assay: Multi-cycle infection assay in PBMC; conditions: read-out: IC50 HIV-1LAI; human PBMC; CXCR4-tropic lab-adapted virus; p24, 7 days
[9] = test system: HIV-1 Env pseudovirus B41; assay: Single-cycle assay TZM-bl, Env pseudovirus panel
[10] = test system: HIV-1 Env pseudovirus MJ613.W0M.ENV.A2; assay: Single-cycle assay, Paired Infant and Maternal Env clones
[11] = test system: HIV-1 Env pseudovirus BG505.W6M.ENV.C2; assay: as above
[12] = test system: HIV-1 Env pseudovirus HIV-16936-2, clone 21; assay: Single-cycle assay TZM-bl, Env pseudovirus panel
TZM-bl cells = assay: Cytotoxicity; type: cell-based; conditions: read-out: TZMb-l CC50; TZM-bl cells, 3 days, MTS; mean ± SD, n=3
[13] = test system: HIV-1 Env pseudovirus MK184.W0M.ENV.E4; assay: Single-cycle assay, Paired Infant and Maternal Env clones
human PBMC = assay: Cytotoxicity; type: cell-based; conditions: human PBMC, 7 days, MTS
[14] = test system: HIV-1 Env pseudovirus 9021_14.B2.4571; assay: Single-cycle assay TZM-bl, Env pseudovirus panel
Cytotoxicity [15] = type: cell-based, human; conditions: human, MT-2 cells, MT-2 CC50, MT-2 cells, MTS; mean ± SD, n=3
[16] = test system: HIV-1 Env pseudovirus CRF02_AG, clone 253; assay: Single-cycle assay TZM-bl, Env pseudovirus panel
HIV-1IIIB = assay: Multi-cycle infection assay in MT-2 cells; type: cell-based; conditions: read-out: MT-2 IC50, p24, mean ± SD, n=3
Cytotoxicity [17] = type: cell-based; conditions: human, TZM-bl cells, TZMb-l CC50, TZM-bl cells, 3 days, MTS; mean ± SD, n=3

| SMILES | CC50 (MT-2 cells) | CC50 (TZM-bl cells) | IC50 [1] | CC50 at 4 days (Cytotoxicity [15]) | IC50 [16] | IC50 ([2]; TZM-bl) | IC50 ([3]; TZM-bl) | IC50 (HIV-1IIIB) | IC50 ([5]; TZM-bl) | IC50 ([6]; TZM-bl) | IC50 ([7]; TZM-bl) | IC50 ([8]; TZM-bl) | IC50 ([9]; TZM-bl) | IC50 [10] | IC50 [11] | IC50 ([12]; TZM-bl) | CC50 at 3 days (Cytotoxicity [17]) | IC50 [13] | IC50 ([14]; TZM-bl) | other results |
| --- | --- | --- | --- | --- | --- | --- | --- | --- | --- | --- | --- | --- | --- | --- | --- | --- | --- | --- | --- | --- |
| Cc1nc([C@@H](CN)NC(=O)c2ccc(-c3ccc(F)c(F)c3)[nH]2)sc1CO (single isomer, unassigned) [NBD-14113, reference compound] | 96.8 ± 1.8 µM | 84.1 ± 1.3 µM | – | – | – | – | – | – | – | – | – | – | – | – | – | – | – | – | – | IC50 ([1]; subtype A, NIH # 11525-B (infant), BL274.W6M.ENV.A3): 5.7 ± 0.3 µM; IC50 ([2]; subtype A, NIH # 11887, Q259ENV.W6, TZM-bl cells): 2100 ± 300 nM; IC50 ([3]; subtype B, NIH # 11018, QH0692, clone 42, TZM-bl cells): 4.3 ± 0.4 µM; IC50 ([4]; read-out: IC50 Mean ± SEM: Overall (n=34), mean over 34 HIV-1 Env pseudoviruses): 3.9 ± 0.17 µM; IC50 ([4]; read-out: IC50 Mean ± SEM: Subtype A (n=5), mean over subtype A pseudoviruses): 3.44 ± 0.36 µM; IC50 ([4]; read-out: IC50 Mean ± SEM: Subtype B (n=10), mean over subtype B pseudoviruses): 3.79 ± 0.18 µM; IC50 ([4]; read-out: IC50 Mean ± SEM: Subtype C (n=7), mean over subtype C pseudoviruses): 4.04 ± 0.43 µM; IC50 ([4]; read-out: IC50 Mean ± SEM: Subtype D (n=3), mean over subtype D pseudoviruses): 3.5 ± 0.75 µM; IC50 ([5]; subtype C, NIH # 11506, HIV-25711-2, clone 4, TZM-bl cells): 4.7 ± 0.4 µM; IC50 ([6]; subtype C, NIH # 11317, CAP210.2.00.E8, TZM-bl cells): 3.7 ± 0.1 µM; IC50 ([7]; subtype A, BG505-T332N, TZM-bl cells): 3.3 ± 0.2 µM; IC50 ([8]; subtype A1/D, NIH # 11903, QA790.204I.ENV.C8, TZM-bl cells): 4300 ± 100 nM; IC50 (HIV-1LAI): 3.8 ± 1.1 µM; IC50 ([9]; subtype B, B41, TZM-bl cells): 3400 ± 100 nM; IC50 ([10]; subtype A, NIH # 11534-M (maternal), MJ613.W0M.ENV.A2): 4.9 ± 0.2 µM; IC50 ([11]; subtype A, NIH # 11518-B (infant), BG505.W6M.ENV.C2): 4.4 ± 0.3 µM; IC50 ([12]; subtype C, NIH # 11504, HIV-16936-2, clone 21, TZM-bl cells): 5.9 ± 0.2 µM; IC50 ([13]; subtype C/D, NIH # 11536-M (maternal), MK184.W0M.ENV.E4): 2600 ± 300 nM; CC50 (human PBMC): 47.1 ± 2.6 µM; IC50 ([14]; subtype B, NIH # 11572, 9021_14.B2.4571, TZM-bl cells): 3.2 ± 0.2 µM |
| Cc1nc(C(CN)NC(=O)c2ccc(-c3ccc4c(c3)OCO4)[nH]2)sc1CO (stereo not drawn) [NBD-14110, N-(2-amino-1-(5-(hydroxymethyl)-4-methylthiazol-2-yl)ethyl)-5-(benzo[d][1,3]dioxol-5-yl)-1H-pyrrole-2-carboxamide] | – | – | 7.2 ± 0.1 µM | 193 ± 6.3 µM | 3.2 ± 0.2 µM | 1900 ± 200 nM | 8.2 ± 0.2 µM | 3.8 ± 1.4 µM | 4.4 ± 0.4 µM | 5.5 ± 0.4 µM | 4.2 ± 0.5 µM | 2400 ± 200 nM | 2000 ± 100 nM | 4.9 ± 0.1 µM | 4.8 ± 0.3 µM | 3.5 ± 0.1 µM | 146 ± 7.6 µM | 3400 ± 200 nM | 4.5 ± 0.5 µM | – |
| NCC(NC(=O)c1ccc(-c2ccc3c(c2)OCO3)[nH]1)c1ncc(CO)s1 (stereo not drawn) [NBD-14123, N-(2-amino-1-(5-(hydroxymethyl)thiazol-2-yl)ethyl)-5-(benzo[d][1,3]dioxol-5-yl)-1H-pyrrole-2-carboxamide] | – | – | 5.7 ± 0.3 µM | 192 ± 2.6 µM | 3.2 ± 0.2 µM | 2300 ± 200 nM | 6.4 ± 0.1 µM | – | 5.7 ± 0.7 µM | 5.3 ± 0.2 µM | 4 ± 0.5 µM | 1400 ± 200 nM | 2800 ± 300 nM | 4 ± 0.1 µM | 4.4 ± 0.1 µM | 4.4 ± 0.5 µM | 142 ± 2.6 µM | 3700 ± 100 nM | 2.1 ± 0.6 µM | – |
| CNCC(NC(=O)c1ccc(-c2ccc3c(c2)OCO3)[nH]1)c1nc(CO)cs1 (stereo not drawn) [NBD-14159, 5-(benzo[d][1,3]dioxol-5-yl)-N-(1-(4-(hydroxymethyl)thiazol-2-yl)-2-(methylamino)ethyl)-1H-pyrrole-2-carboxamide] | 180 ± 2 µM | 95.8 ± 1.4 µM | 4.2 ± 0.5 µM | – | 3.1 ± 0.1 µM | 1300 ± 200 nM | 5.8 ± 0.7 µM | 2.98 ± 0.1 µM | 5.8 ± 0.3 µM | 3.5 ± 0.2 µM | 3.3 ± 0.2 µM | 2100 ± 100 nM | 1700 ± 100 nM | 3.1 ± 0.3 µM | 4.7 ± 0.5 µM | 5.3 ± 0.2 µM | – | 2600 ± 100 nM | 3.7 ± 0.3 µM | – |

From article PMC6446940 (ChemMedChem, 2018)
